Test results published in EP0643693B1, “REVERSAL OF MULTI-DRUG RESISTANCE BY TRIPHENYL-PIPERIDINE DERIVATIVES” (MERRELL PHARMACEUTICALS INC., priority 1992, dated 1993).
Counter-ions that a name gives are not always drawn.

Experiments:
[1] = test system: multidrug resistant human epidermoid carcinoma (KBV1) cells; assay: Growth inhibition of vinblastine-resistant KBV1 cells (reversal of multidrug resistance); assay type: cell-based
[2] = test system: multidrug resistant human epidermoid carcinoma (KBV1) cells; assay: as above; assay type: cell-based; remark: listed apart in the source
Procedure: The ability of compounds of this invention to reverse multi drug resistance can be determined using standard test procedures. The ability of the test compounds to inhibit the growth of multidrug resistant human epidermoid carcinoma (KBV1) cells in the presence of both Vinblastine and the compound was determined. […]

| SMILES | inhibition at 0.25 µg/mL ([1]; Homo sapiens, KB-V1, VLB at 0.25 µg/ml alone, read-out: growthinhibition) [%] | growth inhibition ([1]; Vinblastine (0.25 µg/ml) alone) | inhibition at 0.06 µM ([2]; KB-V1, compound 0.06 µM + VLB at 0.25 µg/ml) [%] | inhibition at 0.12 µM ([2]; KB-V1, compound 0.12 µM + VLB at 0.25 µg/ml) [%] | inhibition at 0.18 µM ([2]; KB-V1, compound 0.18 µM + VLB at 0.25 µg/ml) [%] | inhibition at 0.23 µM ([2]; KB-V1, compound 0.23 µM + VLB at 0.25 µg/ml) [%] | inhibition at 0.06 µM ([1]; Homo sapiens, KB-V1, compound alone, 0.06 µM) [%] | inhibition at 0.12 µM ([1]; Homo sapiens, KB-V1, compound alone, 0.12 µM) [%] | inhibition at 0.18 µM ([1]; Homo sapiens, KB-V1, compound alone, 0.18 µM) [%] | inhibition at 0.23 µM ([1]; Homo sapiens, KB-V1, compound alone, 0.23 µM) [%] |
| --- | --- | --- | --- | --- | --- | --- | --- | --- | --- | --- |
| CC[C@]1(O)C[C@@H]2CN(CCc3c([nH]c4ccccc34)[C@@](C(=O)OC)(c3cc4c(cc3OC)N(C)[C@H]3[C@@](O)(C(=O)OC)[C@H](OC(C)=O)[C@]5(CC)C=CCN6CC[C@]43[C@@H]65)C2)C1 [Vinblastine, reference compound] | 0 to 10 | 0 - 10% | – | – | – | – | – | – | – | – |
| COc1ccc(CCN2CCCCC2CC(c2ccccc2)c2ccccc2)cc1OC (stereo not shown) [1-(3,4-Dimethoxyphenethyl)-2-(2,2-diphenylethyl)piperidine Maleate] | – | – | 30.4 | 60 | 91.6 | 94.2 | 1 | 0 | 8.1 | 12.2 |
